Results on 27 compounds are retold here after ChEMBL document CHEMBL1770146, “Structure-activity relationship studies of novel 3-oxazolidinedione-6-naphthyl-2-pyridinones as potent and orally bioavailable EP3 receptor antagonists” (Bioorg Med Chem Lett, 2011).

Each structure is given as a SMILES string. Active and inactive are the calls of the source. The calls are words filed in the database; no cut-off is given here.

Data set [1] deals with T1, Prostaglandin E2 receptor EP3 subtype (Homo sapiens, UniProt P43115).
T1 sequence (P43115 whole entry): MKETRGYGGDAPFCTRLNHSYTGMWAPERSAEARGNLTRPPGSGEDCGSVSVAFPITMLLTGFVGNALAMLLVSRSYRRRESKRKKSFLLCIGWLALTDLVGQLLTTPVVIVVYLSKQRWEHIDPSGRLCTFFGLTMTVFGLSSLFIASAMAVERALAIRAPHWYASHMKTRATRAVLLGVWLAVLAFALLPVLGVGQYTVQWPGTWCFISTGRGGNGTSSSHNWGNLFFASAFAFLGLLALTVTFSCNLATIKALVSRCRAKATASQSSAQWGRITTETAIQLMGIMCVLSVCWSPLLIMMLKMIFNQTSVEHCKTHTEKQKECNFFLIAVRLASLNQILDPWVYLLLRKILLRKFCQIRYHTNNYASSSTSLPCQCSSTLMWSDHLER
The experiment in a line: Antagonist activity at human EP3 receptor expressed in CHO cells assessed as inhibition of PGE2-induced increase in intracellular calcium concentration after 1 hr by FLIPR assay. Type of data set: functional, cell-based.

The next data set is filed under the species Canis lupus familiaris. The experiment in a line: Antagonist activity at dog EP3 receptor. Type of data set: functional.
Data set [2] addresses T2, Prostaglandin E2 receptor EP3 subtype (Rattus norvegicus) (UniProt P34980).
T2 sequence (whole entry): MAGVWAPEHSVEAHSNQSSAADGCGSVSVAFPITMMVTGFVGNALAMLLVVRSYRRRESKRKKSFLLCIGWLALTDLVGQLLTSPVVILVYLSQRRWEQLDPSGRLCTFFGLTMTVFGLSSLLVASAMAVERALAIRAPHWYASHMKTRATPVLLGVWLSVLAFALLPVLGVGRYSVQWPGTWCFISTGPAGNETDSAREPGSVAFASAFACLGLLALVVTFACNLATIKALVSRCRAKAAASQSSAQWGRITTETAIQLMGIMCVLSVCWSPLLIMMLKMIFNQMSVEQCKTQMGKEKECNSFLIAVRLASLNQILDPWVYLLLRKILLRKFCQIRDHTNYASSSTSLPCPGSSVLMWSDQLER
Description: Antagonist activity at rat EP3 receptor. Type of data set: functional.

Data set [3] in a line: Half life in Sprague-Dawley rat at 1 mg/kg, iv and 2 mg/kg, po. In kind it is ADME, organism-based. The conditions noted are these: in vivo.
A further data set concerns Rattus norvegicus. Description: Dose normalized AUC in Sprague-Dawley rat at 2 mg/kg, po. Details: dose 2 mg/kg, route oral. In kind it is ADME, organism-based. As to conditions: in vivo.
Data set [4] in a line: Clearance in Sprague-Dawley rat at 1 mg/kg, iv and 2 mg/kg, po. In kind it is ADME, organism-based. The conditions noted are these: in vivo.
Data set [5] can be described thus: Oral bioavailability in Sprague-Dawley rat at 2 mg/kg. In kind it is ADME, organism-based. As to conditions: in vivo.

As to `CC(C)C1(c2cc(Br)c(-c3ccc4ccccc4c3)[nH]c2=O)OC(=O)NC1=O` (centres undefined), in data set [1], the inhibition constant (Ki) is 0.0398 µM.
Turning to `CC(C)C1(c2ccc(-c3ccc4ccccc4c3)[nH]c2=O)OC(=O)NC1=O` (centres undefined), the outcome (in the data set filed under Canis lupus familiaris; in data set [2]) was Active.
As to `CC(C)[C@@]1(c2ccc(-c3ccc4ccccc4c3)[nH]c2=O)OC(=O)NC1=O`, the Ki in data set [1] was 0.00794 µM.
Take `CC1(c2ccc(-c3ccc4ccccc4c3)[nH]c2=O)NC(=O)NC1=O` (centres undefined): in data set [1], the Ki is 0.316 µM.
In the case of `CC(C)[C@]1(c2ccc(-c3ccc4ccccc4c3)[nH]c2=O)OC(=O)NC1=O`, the Ki in data set [1] was 0.02 µM.
Regarding `CC(C)C1(c2c[nH]c(-c3ccc4ccccc4c3)cc2=O)OC(=O)NC1=O` (centres undefined), the Ki in data set [1] is 0.794 µM.
Same read-out and setting: then `Cn1c(-c2ccc3ccccc3c2)ccc(C2(C)OC(=O)NC2=O)c1=O` (centres undefined), with over 25.1 µM.
`CC(C)C1(c2cc(C(F)(F)F)c(-c3ccc4ccccc4c3)[nH]c2=O)OC(=O)NC1=O` (centres undefined): the Ki in data set [1] is 0.631 µM.
For the compound `CC(C)N1C(=O)OC(C)(c2ccc(-c3ccc4ccccc4c3)[nH]c2=O)C1=O` (centres undefined), the Ki in data set [1] was 1.58 µM.
Take `O=C1NC(=O)C(c2ccc(-c3ccc4ccccc4c3)[nH]c2=O)(C2CCCC2)O1` (centres undefined): the Ki in data set [1] was 0.00794 µM.
Turning to `COc1cc(-c2ccc3ccccc3c2)ccc1C1(C)OC(=O)NC1=O` (centres undefined), the Ki in data set [1] was 3.16 µM.
On the same count and under the same terms, then `CC1(c2ccc(-c3ccc4ccccc4c3)[nH]c2=O)CNC(=O)N1` (centres undefined), with 0.0398 µM; and `O=C1NC(=O)C(c2ccc(-c3ccc4ccccc4c3)[nH]c2=O)(C2CCOCC2)O1` (centres undefined), with 0.2 µM.
On to `CC(C)C1(c2ccc(-c3ccc4ccccc4c3)nc2)OC(=O)NC1=O` (centres undefined), for which the inhibition constant (Ki) in data set [1] is over 25.1 µM.
As for `O=C1NC(=O)C(c2ccc(-c3ccc4ccccc4c3)[nH]c2=O)(C2CCCCC2)O1` (centres undefined), the Ki in data set [1] is 0.00794 µM.
`CC(C)C1(c2ccc(-c3ccc4ccccc4c3)[nH]c2=O)OC(O)=NC1=O` (centres undefined) gave a half-life in data set [3] of 3.5 h. In the data set with Rattus norvegicus, this compound yielded an AUC of 4400 ng·h/mL. Moreover, the clearance in data set [4] is 5.1 mL/min/kg. The compound further displayed a bioavailability in data set [5] of 100%.
Compound `CC(C)C1(c2cc(Cl)c(-c3ccc4ccccc4c3)[nH]c2=O)OC(=O)NC1=O` (centres undefined) had a half-life in data set [3] of 5.3 h. For the same compound, in data set [1], the Ki is 0.0501 µM. This compound came in with an AUC with Rattus norvegicus of 12900 ng·h/mL. Besides, the clearance in data set [4] was 1.2 mL/min/kg. This compound returned a bioavailability in data set [5] of 86%.
In the case of `CC1(c2ccc(-c3ccc4ccccc4c3)[nH]c2=O)OC(=O)NC1=O` (centres undefined), the Ki in data set [1] is 0.02 µM.
In the case of `Cc1cc(C2(C(C)C)OC(=O)NC2=O)c(=O)[nH]c1-c1ccc2ccccc2c1` (centres undefined), the half-life in data set [3] was 6.6 h. The inhibition constant (Ki) in data set [1] is 0.00631 µM. In addition, the AUC in the data set with Rattus norvegicus worked out at 13500 ng·h/mL. The same compound yielded a clearance in data set [4] of 1.4 mL/min/kg. The bioavailability in data set [5] turned out to be 100%.
As to `CC1(c2ccc(-c3ccc4ccccc4c3)cc2O)OC(=O)NC1=O` (centres undefined), the Ki in data set [1] was 1.26 µM.
`CC(C)C1(c2cc(-c3ccccc3)c(-c3ccc4ccccc4c3)[nH]c2=O)OC(=O)NC1=O` (centres undefined): in data set [1], the Ki is 2.51 µM.
For the compound `O=C1NC(=O)C(c2ccccc2)(c2ccc(-c3ccc4ccccc4c3)[nH]c2=O)O1` (centres undefined), the Ki in data set [1] was 0.0316 µM.
`O=C1NC(=O)C(c2ccc(-c3ccc4ccccc4c3)[nH]c2=O)(C(F)(F)F)O1` (centres undefined): the Ki in data set [1] was 0.126 µM.
`O=C1NC(=O)C(Cc2ccccc2)(c2ccc(-c3ccc4ccccc4c3)[nH]c2=O)O1` (centres undefined): the Ki in data set [1] is 0.0158 µM.
On the same count and under the same terms, in the case of `CC1(c2ccc(-c3ccc4ccccc4c3)[nH]c2=O)CNC(=O)O1` (centres undefined) it was 0.0794 µM; in that of `CN1C(=O)OC(C)(c2ccc(-c3ccc4ccccc4c3)[nH]c2=O)C1=O` (centres undefined), 0.501 µM.
`O=C1NC(=O)C(c2ccc(-c3ccc4ccccc4c3)[nH]c2=O)(C2CC2)O1` (centres undefined): the inhibitory constant (Ki) in data set [1] is 0.0501 µM.
